Data published in patent US20070117743A1, “New antitumoral compounds” (priority 2003, published 2007).
Read-outs that look alike come from different tables or passages of the source.

Key:
Format in all cases: cell-based, human
A-549 = test: SRB colorimetric assay of cell growth and viability, A-549; settings: 48 hours exposure; for GI50: read-out: GI50 A-549; for CC50: read-out: LC50 A-549
SK-MEL-28 = test: SRB colorimetric assay of cell growth and viability, SK-MEL-28; settings: 48 hours exposure; for CC50: read-out: LC50 MEL-28
HT-29 = test: SRB colorimetric assay of cell growth and viability, HT-29; settings: 48 hours exposure; for GI50: read-out: GI50 HT-29; for CC50: read-out: LC50 HT-29
LoVo = test: SRB colorimetric assay of cell growth and viability, LoVo; settings: 48 hours exposure; for CC50: read-out: LC50 LOVO
LoVo-Dox = test: SRB colorimetric assay of cell growth and viability, LoVo-Dox; settings: 48 hours exposure; for CC50: read-out: LC50 LOVO-DOX
In short: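 First, 5×10^3 cells per well attach for 18 hours in RPMI 1640 with 10% FBS at 37° C and 5% CO2. Next, samples spanning 10 to 10^−8 μg/mL are added for 48 hours. Finally, cells are fixed with TCA, stained with SRB for 10 minutes and read at 490 nm.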

DU-145 = test: SRB colorimetric assay of cell growth and viability, DU-145; settings: 48 hours exposure
LNCaP = test: SRB colorimetric assay of cell growth and viability, LNCaP; settings: 48 hours exposure; for GI50: read-out: GI50 LN-caP; for CC50: read-out: LC50 LN-caP
SK-BR-3 = test: SRB colorimetric assay of cell growth and viability, SK-BR-3; settings: 48 hours exposure
IGROV-1 = test: SRB colorimetric assay of cell growth and viability, IGROV-1; settings: 48 hours exposure
IGROV-ET = test: SRB colorimetric assay of cell growth and viability, IGROV-ET; settings: 48 hours exposure; for CC50: read-out: LC50 IGROV-ET
HeLa = test: SRB colorimetric assay of cell growth and viability, HeLa; settings: 48 hours exposure; for CC50: read-out: LC50 HELA
HeLa-APL = test: SRB colorimetric assay of cell growth and viability, HeLa-APL; settings: 48 hours exposure; for CC50: read-out: LC50 HELA-APL
K-562 = test: SRB colorimetric assay of cell growth and viability, K-562; settings: 48 hours exposure; for CC50: read-out: LC50 K-562
PANC-1 = test: SRB colorimetric assay of cell growth and viability, PANC-1; settings: 48 hours exposure; for CC50: read-out: LC50 PANC-1

SMILES: C/C=C1\NC(=O)[C@H](Cc2ccccc2)NC(=O)[C@@H](C(C)C)NC(=O)[C@@H]([C@@H](C)CC)NC(=O)[C@H](NC(=O)[C@H](NC(=O)[C@H](CCCNC(=O)CCCC[C@@H]2SC[C@@H]3NC(=O)N[C@@H]32)NC(=O)[C@H]2CCCN2C(=O)[C@H](NC(=O)[C@@H](NC(=O)[C@@H](NC(=O)[C@H](NC(=O)CCCC(C)C)C(C)C)[C@@H](C)O)C(C)C)C(C)C)[C@@H](C)CC)[C@@H](C)OC(=O)[C@H](C(C)C)NC1=O [Compound 99, [Orn(Biot)^8]-Kahalalide F]
- TGI A-549 (A-549; A-549): 2.05E−06 Molar
- GI50 (A-549; A-549): 886 nM
- CC50 (A-549; A-549): 4760 nM
- GI50 (SK-MEL-28; SRB): 839 nM
- TGI MEL-28 (SK-MEL-28; SRB): 1.73E−06 Molar
- CC50 (SK-MEL-28; SRB): 3540 nM
- TGI HT-29 (HT-29; HT-29): 2.41E−07 Molar
- GI50 (HT-29; HT-29): 124 nM
- CC50 (HT-29; HT-29): 467 nM
- GI50 (LoVo; LOVO): 129 nM
- TGI LOVO (LoVo; LOVO): 2.53E−07 Molar
- CC50 (LoVo; LOVO): 495 nM
- GI50 (LoVo-Dox; LOVO-DOX): 139 nM
- TGI LOVO-DOX (LoVo-Dox; LOVO-DOX): 3.10E−07 Molar
- CC50 (LoVo-Dox; LOVO-DOX): 3930 nM
- GI50 (DU-145; SRB): 757 nM
- LC50 (concentration causing 50% net cell kill) (DU-145; SRB): 3260 nM
- TGI DU-145 (DU-145; SRB): 1.57E−06 Molar
- TGI LN-caP (LNCaP; SRB): 1.99E−06 Molar
- GI50 (LNCaP; SRB): 1020 nM
- CC50 (LNCaP; SRB): 3890 nM
- GI50 (SK-BR-3; SRB): 140 nM
- LC50 (SK-BR-3; SRB): 575 nM
- TGI SK-BR-3 (SK-BR-3; SRB): 2.84E−07 Molar
- GI50 (IGROV-1; SRB): 268 nM
- LC50 (concentration causing 50% net cell killing) (IGROV-1; SRB): 2690 nM
- TGI IGROV (IGROV-1; SRB): 8.98E−07 Molar
- GI50 (IGROV-ET; SRB): 874 nM
- TGI IGROV-ET (IGROV-ET; SRB): 1.88E−06 Molar
- CC50 (IGROV-ET; SRB): 4040 nM
- GI50 (HeLa; HELA): 329 nM
- TGI HELA (HeLa; HELA): 1.19E−06 Molar
- CC50 (HeLa; HELA): 3510 nM
- GI50 (HeLa-APL; HELA-APL): 951 nM
- TGI HELA-APL (HeLa-APL; HELA-APL): 2.10E−06 Molar
- CC50 (HeLa-APL; HELA-APL): 4650 nM
- GI50 (K-562; K-562): 3300 nM
- TGI K-562 (K-562; K-562): 5.87E−06 Molar
- CC50 (K-562; K-562): 5870 nM
- GI50 (PANC-1; PANC-1): 1500 nM
- TGI PANC-1 (PANC-1; PANC-1): 3.50E−06 Molar
- CC50 (PANC-1; PANC-1): 5870 nM

SMILES: C/C=C1\NC(=O)[C@H](Cc2ccccc2)NC(=O)[C@@H](C(C)C)NC(=O)[C@@H]([C@@H](C)CC)NC(=O)[C@H](NC(=O)[C@H](NC(=O)[C@H](CCCN)NC(=O)[C@H]2CCCN2C(=O)[C@H](NC(=O)[C@@H](NC(=O)[C@@H](NC(=O)[C@H](NC(=O)CC[C@H](C)CC)C(C)C)[C@@H](C)O)C(C)C)C(C)C)[C@@H](C)CC)[C@@H](C)OC(=O)[C@H](C(C)C)NC1=O [Compound 16, [(4R)-MeHex^14]-KF]
- TGI A-549 (A-549): 2.26E−06 Molar
- GI50 (A-549): 1200 nM
- CC50 (A-549): 4240 nM
- GI50 (SK-MEL-28): 1140 nM
- TGI MEL-28 (SK-MEL-28): 2.09E−06 Molar
- CC50 (SK-MEL-28): 3800 nM
- TGI HT-29 (HT-29): 1.54E−06 Molar
- GI50 (HT-29): 738 nM
- CC50 (HT-29): 3220 nM
- GI50 (LoVo): 248 nM
- TGI LOVO (LoVo): 7.78E−07 Molar
- CC50 (LoVo): 2280 nM
- GI50 (LoVo-Dox): 288 nM
- TGI LOVO-DOX (LoVo-Dox): 7.71E−07 Molar
- CC50 (LoVo-Dox): 2190 nM
- GI50 (DU-145): 1200 nM
- LC50 (concentration causing 50% net cell kill) (DU-145): 3820 nM
- TGI DU-145 (DU-145): 2.14E−06 Molar
- TGI LN-caP (LNCaP): 2.46E−06 Molar
- GI50 (LNCaP): 1500 nM
- CC50 (LNCaP): 4040 nM
- GI50 (SK-BR-3): 1250 nM
- LC50 (SK-BR-3): 3860 nM
- TGI SK-BR-3 (SK-BR-3): 2.20E−06 Molar
- GI50 (IGROV-1): 941 nM
- LC50 (concentration causing 50% net cell killing) (IGROV-1): 3500 nM
- TGI IGROV (IGROV-1): 1.81E−06 Molar
- GI50 (IGROV-ET): 805 nM
- TGI IGROV-ET (IGROV-ET): 1.62E−06 Molar
- CC50 (IGROV-ET): 3260 nM
- GI50 (HeLa): 1050 nM
- TGI HELA (HeLa): 1.93E−06 Molar
- CC50 (HeLa): 3550 nM
- GI50 (HeLa-APL): 1560 nM
- TGI HELA-APL (HeLa-APL): 3.47E−06 Molar
- CC50 (HeLa-APL): ≥ 6770 nM
- GI50 (K-562): 3730 nM
- TGI K-562 (K-562): 6.77E−06 Molar
- CC50 (K-562): ≥ 6770 nM
- GI50 (PANC-1): 4700 nM
- TGI PANC-1 (PANC-1): 4.24E−06 Molar
- CC50 (PANC-1): 4240 nM
